This is an account of results in US20250002487A1, “HETEROCYCLIC COMPOUNDS AND USES THEREOF” (Ventus Therapeutics U.S., Inc., priority 2021, published 2025).

Usually pIC50 stands for the IC50 on a negative log10 scale, so that one unit is a factor of ten.

The target of this test is human-cGAS (h-cGAS) (Homo sapiens, UniProt Q8N884). Kind of test: hcGAS Kinase-Glo Assay. Format: biochemical. The following applies: 40 nM h-cGAS, 100 μM ATP, 100 μM GTP, 25 nM dsDNA, 3 h incubation, read-out: hcGAS potency IC50. The protocol: In some embodiments, the compounds of the instant disclosure may be tested for their human-cGAS (h-cGAS) inhibition activity using the methodology reported in Lama et al., “Development of human cGAS-specific small molecule inhibitors for repression of double stranded DNA (dsDNA)-triggered interferon expression”, Nature Communications 10, Article number: 2261 (2019), incorporated herein by reference. hcGAS Kinase-Glo Assay Compounds were tested for their human-cGAS (h-cGAS) inhibition activity using the methodology reported in Lama et al., “Development of human cGAS-specific small molecule inhibitors for repression of double stranded DNA (dsDNA)-triggered interferon expression”, Nature Communications 10. Article number: 2261 (2019), which is herein incorporated by reference in its entirety, with slight changes to some conditions as shown in Table B. The results of the assays, expressed in IC50 ranges are reported in Table C with the following designations: A represents an IC50 value <0.1 μM; B represents an IC50 value ≥0.1 μM and <0.5 μM; C represents an IC50 value ≥0.5 μM and <1.0 μM; D represents an IC50 value ≥1.0 μM. [table]
For orientation: Kinase-Glo reads ATP consumption through a luciferase reaction.

Structures are written as SMILES. pIC50: −log10 of the molar value. A value given as a limit tells only on which side of the number the result lay.

Sequence of human-cGAS (h-cGAS) (Q8N884 whole entry): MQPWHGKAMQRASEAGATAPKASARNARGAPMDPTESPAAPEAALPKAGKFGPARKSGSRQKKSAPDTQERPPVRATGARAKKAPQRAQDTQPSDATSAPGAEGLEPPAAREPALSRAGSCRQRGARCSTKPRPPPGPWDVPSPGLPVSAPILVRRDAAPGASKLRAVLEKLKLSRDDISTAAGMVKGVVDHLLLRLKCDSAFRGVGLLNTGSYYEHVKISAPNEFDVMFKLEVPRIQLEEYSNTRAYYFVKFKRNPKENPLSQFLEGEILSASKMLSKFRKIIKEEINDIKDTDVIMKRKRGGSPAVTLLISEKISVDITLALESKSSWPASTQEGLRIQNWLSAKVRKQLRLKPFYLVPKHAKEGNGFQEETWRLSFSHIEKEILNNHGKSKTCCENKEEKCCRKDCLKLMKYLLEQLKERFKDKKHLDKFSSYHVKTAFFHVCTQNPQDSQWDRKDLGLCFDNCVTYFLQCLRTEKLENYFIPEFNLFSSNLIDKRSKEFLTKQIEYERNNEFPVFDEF

Regarding `O=C(Nc1nnc(-c2ccccc2C(F)(F)F)s1)c1onc2ccccc12` [Compound 143, N-(5-(2-(trifluoromethyl)phenyl)-1,3,4-thiadiazol-2-yl)benzo[c]iso-xazole-3-carboxamide], the negative logarithm of the IC50 (pIC50) was 6.30 to 7.00. Consider `CSc1nnc(NC(=O)c2noc(N3CCCCC3c3ccccc3)n2)s1` (centres unmarked) [Compound 103, N-(5-(methylthio)-1,3,4-thiadiazol-2-yl)-5-(2-phenylpiperidin-1-yl)-1,2,4-oxadiazole-3-carboxamide], for which the negative logarithm of the IC50 (pIC50) was 6.00 to 6.30. To `O=C(Nc1nnc(-c2cnccn2)s1)c1onc2ccccc12` [Compound 130, N-[5(pyrazin-2-yl)-1,3,4-thiadiazol-2-yl]-2,1-benzoxazole-3-carboxamide] belongs 6.00 to 6.30; to `CSc1nnc(NC(=O)c2onc3c(CO)cccc23)s1` [Compound 168, 7-(hydroxymethyl)-N-(5-(methylthio)-1,3,4-thiadiazol-2-yl)benzo[c]isoxazole-3-carboxamide], 6.00 to 6.30; to `CSc1nnc(NC(=O)c2onc3ccc(Cl)cc23)s1` [Compound 229, 5-chloro-N-[5-(methylsulfanyl)-1,3,4-thiadiazol-2-yl]-2,1-benzoxazole-3-carboxamide], 6.00 to 6.30. For the compound `CSc1nnc(NC(=O)c2nnc(Cc3ccccc3Cl)o2)s1` [Compound 49, 5-(2-chlorobenzyl)-N-(5-(methylthio)-1,3,4-thiadiazol-2-yl)-1,3,4-oxdiazole-2-carboxamide], the negative logarithm of the IC50 (pIC50) is 6.00 to 6.30. The value for `CSc1nnc(NC(=O)c2onc3c2ccc2ncccc23)s1` [Compound 271, N-(5-(methylthio)-1,3,4-thiadiazol-2-yl)isoxazolo[3,4-f]quinoline-3-carboxamide] was 6.00 to 6.30; that for `CSc1nnc(NC(=O)c2cc(-c3ccccc3F)no2)s1` [Compound 217, 3-(2-fluorophenyl)-N-(5-(methylthio)-1,3,4-thiadiazol-2-yl)isoxazole-5-carboxamide] was 6.30 to 7.00. To `CSc1nnc(NC(=O)c2cc(-c3cccc4c(C)ccnc34)cc(=O)o2)s1` [Compound 267, 4-(4-methylquinolin-8-yl)-N-(5-(methylthio)-1,3,4-thiadiazol-2-yl)-2-oxo-2H-pyran-6-carboxamide] belongs 6.30 to 7.00; to `O=C(Nc1nnc(-c2ccccc2Cl)s1)c1cc(-c2ncccn2)no1` [Compound 154, N-(5-(2-Chlorophenyl)-1,3,4-thiadiazol-2-yl)-3-(pyrimidin-2-yl)isoxazole-5-carboxamide], 6.30 to 7.00.

For `CNc1nnc(NC(=O)c2onc3c2ccc2cccnc23)s1` [Compound 280, N-(5-(methylamino)-1,3,4-thiadiazol-2-yl)isoxazolo[4,3-h]quinoline-3-carboxamide], the pIC50 was no more than 6.00. To `CSc1nnc(NC(=O)c2cc(C(=O)O)no2)s1` [Compound 16, 5-((5-(methylthio)-1,3,4-thiadiazol-2-yl)carbamoyl)isoxazole-3-carboxylic acid] belongs 6.30 to 7.00; to `CCc1nnc(NC(=O)c2onc3c2ccc2cccnc23)s1` [Compound 197, N-(5-ethyl-1,3,4-thiadiazol-2-yl)isoxazolo[4,3-h]quinoline-3-carboxamide], 6.30 to 7.00; to `CSc1nnc(NC(=O)c2onc3c2ccc2cccnc23)s1` [Compound 94, N-(5-(methylthio)-1,3,4-thiadiazol-2-yl)isoxazolo[4,3-h]quinoline-3-carboxamide], 6.30 to 7.00. Regarding `COc1cccc(-c2cc(C(=O)Nc3nnc(SC)s3)oc(=O)c2)c1` [Compound 241, 4-(3-methoxyphenyl)-N-(5-methylsulfanyl-1,3,4-thiadiazol-2-yl)-6-oxo-pyran-2-carboxamide], the pIC50 was 6.30 to 7.00. To `Cc1cnc(-c2cc(C(=O)Nc3nnc(-c4ccccc4Cl)s3)on2)nc1` [Compound 158, N-(5-(2-Chlorophenyl)-1,3,4-thiadiazol-2-yl)-3-(5-methylpyrimidin-2-yl)isoxazole-5-carboxamide] belongs 6.30 to 7.00; to `CSc1nnc(NC(=O)c2onc3cc(CO)ccc23)s1` [Compound 194, 6-(hydroxymethyl)-N-(5-(methylthio)-1,3,4-thiadiazol-2-yl)benzo[c]isoxazole-3-carboxamide], 6.00 to 6.30; to `CSc1nnc(NC(=O)c2nnc(N(C)Cc3ccccc3)o2)s1` [Compound 113, 5-[benzyl(methyl)amino]-N-[5-(methylsulfanyl)-1,3,4-thiadiazol-2-yl]-1,3,4-oxadiazole-2-carboxamide], 6.00 to 6.30.

As to `CSc1nnc(NC(=O)c2onc(C)c2C)s1` [Compound 242, 3,4-dimethyl-N-(5-methylsulfanyl-1,3,4-thiadiazol-2-yl)isoxazole-5-carboxamide], the pIC50 was 6.00 to 6.30. On to `CSc1nnc(NC(=O)c2cc(-c3cnc4ccccc4c3)cc(=O)o2)s1` [Compound 255, N-(5-methylsulfanyl-1,3,4-thiadiazol-2-yl)-6-oxo-4-(3-quinolyl)pyran-2-carboxamide], for which the pIC50 is 6.00 to 6.30. `COCCc1cc(C(=O)Nc2nnc(-c3ccccc3Cl)s2)on1` [Compound 169, N-(5-(2-chlorophenyl)-1,3,4-thiadiazol-2-yl)-3-(2-methoxyethyl)isoxazole-5-carboxamide]: the negative logarithm of the IC50 (pIC50) was greater than 7.00.

For `CSc1nnc(NC(=O)c2onc3c2CCc2scnc2-3)s1` [Compound 171, N-(5-(methylthio)-1,3,4-thiadiazol-2-yl)-4,5-dihydrothiazolo[5′,4′:5,6]benzo[1,2-c]isoxazole-3-carboxamide], the negative-log IC50 (pIC50) is no more than 6.00.

Take `O=C(Nc1nnc(-c2ccccc2Cl)s1)c1cc(=O)c2cccc(O)c2[nH]1` [Compound 51, N-(5-(2-chlorophenyl)-1,3,4-thiadiazol-2-yl)-8-hydroxy-4-oxo-1,4-dihydroquinoline-2-carboxamide]: the pIC50 is 6.00 to 6.30. The value for `CSc1nnc(NC(=O)c2cc(-c3ccc4ccccc4n3)cc(=O)o2)s1` [Compound 254, N-(5-methylsulfanyl-1,3,4-thiadiazol-2-yl)-6-oxo-4-(2-quinolyl)pyran-2-carboxamide] was 6.30 to 7.00. To `CSc1nnc(NC(=O)c2cc(Oc3ccccc3)cc(=O)o2)s1` [Compound 202, N-(5-(methylthio)-1,3,4-thiadiazol-2-yl)-2-oxo-4-phenoxy-2H-pyran-6-carboxamide] belongs 6.00 to 6.30; to `CSc1nnc(NC(=O)c2cc(-c3c(F)cccc3F)no2)s1` [Compound 46, 3-(2,6-difluorophenyl)-N-(5-(methylthio)-1,3,4-thiadiazol-2-yl)isoxazole-5-carboxamide], 6.30 to 7.00. The value for `CSc1nnc(NC(=O)c2cc(-c3ncccn3)no2)s1` [Compound 152, N-(5-(Methylthio)-1,3,4-thiadiazol-2-yl)-3-(pyrimidin-2-yl)isoxazole-5-carboxamide] was 6.30 to 7.00. `O=C(Nc1nnc(-c2ccccc2Cl)s1)c1c[nH]nn1` [Compound 59, N-(5-(2-chlorophenyl)-1,3,4-thiadiazol-2-yl)-1H-1,2,3-triazole-4-carboxamide]: the pIC50 was 6.00 to 6.30. The value for `N#Cc1nnc(NC(=O)c2onc3c2ccc2cccnc23)s1` [Compound 9, N-(5-cyano-1,3,4-thiadiazol-2-yl)isoxazolo[4,3-h]quinoline-3-carboxamide] was 6.30 to 7.00.
